We go through 20 molecules from US12016864B2, “LOX enzyme inhibiting methods and compositions” (ANOVIA BIOSCIENCES, INC., priority 2021, dated 2024).

The assay has as its target T1, Recombinant human LOXL2 (lysyl oxidase like 2) (Homo sapiens, UniProt Q9Y4K0).
T1 construct: purchased R&D systems
T1 sequence (Q9Y4K0 26-774): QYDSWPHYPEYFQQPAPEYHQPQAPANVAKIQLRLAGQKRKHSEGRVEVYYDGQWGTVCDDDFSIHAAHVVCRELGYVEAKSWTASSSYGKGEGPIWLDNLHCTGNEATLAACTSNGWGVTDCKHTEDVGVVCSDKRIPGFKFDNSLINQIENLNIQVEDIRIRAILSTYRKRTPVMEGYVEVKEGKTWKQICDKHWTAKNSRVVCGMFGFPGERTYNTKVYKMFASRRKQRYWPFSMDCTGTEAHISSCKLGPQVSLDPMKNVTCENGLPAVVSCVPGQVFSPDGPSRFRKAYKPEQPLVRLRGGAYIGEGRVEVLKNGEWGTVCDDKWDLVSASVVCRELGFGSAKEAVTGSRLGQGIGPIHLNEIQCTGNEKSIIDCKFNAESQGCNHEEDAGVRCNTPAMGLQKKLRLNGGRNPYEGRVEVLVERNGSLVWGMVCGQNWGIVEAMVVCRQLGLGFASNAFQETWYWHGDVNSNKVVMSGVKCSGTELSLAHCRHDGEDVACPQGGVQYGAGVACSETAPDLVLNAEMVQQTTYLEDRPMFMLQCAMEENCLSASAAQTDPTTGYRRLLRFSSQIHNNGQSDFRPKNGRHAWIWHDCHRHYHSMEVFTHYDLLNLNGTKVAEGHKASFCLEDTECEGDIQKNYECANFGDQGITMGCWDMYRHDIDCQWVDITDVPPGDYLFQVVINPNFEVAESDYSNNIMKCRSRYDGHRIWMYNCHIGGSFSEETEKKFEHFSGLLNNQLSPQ
The experiment in a line: LOXL2 inhibition assay, fluorometric (cadaverine / HRP / Amplex Red). The settings on record: recombinant human LOXL2 130 nM; 30 min preincubation at 37° C.; 2.5 mM cadaverine; read-out: Activity Range LOXL2. The class given is biochemical. As to the method: The ability of compounds to inhibit one or more of the lysyl oxidases LOXL2 and/or LOXL3 was determined using a fluorometric assay. This assay measures the activity of lysyl oxidases by coupling the reaction with horseradish peroxidase-catalyzed […]. The activity assay protocol uses cadaverine as substrate that releases hydrogen peroxide upon transformation by the specific LOX family enzyme present in the sample. Hydrogen peroxide is in turn detected using a red fluorescence substrate for HRP-coupled reactions (Amplex Red Enzyme Assays, Thermo Scientific Fisher). This leads to increase in fluorescence that can be easily detected at Ex/Em=540/590 nm in a fluorescence microplate reader.
Recombinant human LOXL2 (lysyl oxidase like 2) and recombinant human LOXL3 (lysyl oxidase like 3) were purchased from R&D systems and assays were performed in 1.2 M urea, 50 mM sodium borate buffer pH 8.0, and 10 mM CaCl.
5 μl of freshly prepared reaction buffer were delivered to reaction wells. Compounds were resuspended in 100% DMSO at 10 mM and delivered into buffer using acoustic technology (Echo550; nanoliter range). A 3× solution of LOXL2 or LOXL3 in reaction buffer was prepared (“enzyme solution”) and 5 μL of enzyme solution was added into the reaction wells. Buffer only was added to column 1 for no protein control. Reactions were incubated for 30 minutes at 37° C. A 3× mixture of cadaverine, Amplex Red, and HRP (“Substrate/Detection Mix) was prepared and subsequently 5 μL of the mixture added to each reaction well. Progress of reactions was monitored for 60 minutes at 37° C. using Clariostar plate reader (ex 530-12, ems 600-40). For all activity assays, pan-LOX inhibitor CCT365623 (Tang et al, 2017) and LOXL2/LOXL3 inhibitor PAT-1251 (PharmaKea) were included as standards.
For the data analysis, the slope of the linear portion of the progress curve was calculated using Clariostar software. Typical analysis interval was between 8-30 min, but varied between experiments. The background-subtracted signals (No protein wells are considered as background) were converted to % activity relative to DMSO controls. Data was analyzed using GraphPad Prism 4 with “sigmoidal dose-response (variable slope)”; 4 parameters with Hill Slope. Constraints: Bottom=Constant equal to 0. Top=Must be less than 120.

Some results are limits rather than exact numbers.

As for `NCc1cccc(OC[C@@H]2C[C@H](c3ccccc3F)CN2S(=O)(=O)N2CCOCC2)c1` (racemic) [Example 215, cis-(3-((4-(2-Fluorophenyl)-1-(morpholinosulfonyl)pyrrolidin-2-yl)methoxy)phenyl)methanamine], the IC50 was in the range of 500 to 1000 nM.
With `NCc1ccnc(OC[C@@H]2C[C@H](c3ccccc3F)CN2S(=O)(=O)N2CCS(=O)(=O)CC2)c1` (racemic) [Example 213, cis-4-((2-(((4-(Aminomethyl)pyridin-2-yl)oxy)methyl)-4-(2-fluorophenyl)pyrrolidin-1-yl)sulfonyl)thiomorpholine 1,1-dioxide 2,2,2-trifluoroacetate] the figure was at most 500 nM; with `NCc1ccnc(OC[C@H]2C[C@H](C3CCCCC3)CN(S(=O)(=O)N3CCOCC3)C2)c1` [Example 231T, trans-(2-(((3S,5R)-5-cyclohexyl-1-(morpholinosulfonyl)piperidin-3-yl)methoxy)pyridin-4-yl)methanamine], at most 500 nM.
Next, `CS(=O)(=O)N1C[C@@H](c2ccccc2)C[C@@H]1CS(=O)(=O)c1ccc(CN)s1` (racemic) [Example 223T, trans-(5-(((1-(Methylsulfonyl)-4-phenylpyrrolidin-2-yl)methyl)sulfonyl)thiophen-2-yl)methanamine 2,2,2-trifluoroacetate]: at most 500 nM; `NCc1ccnc(S(=O)(=O)C[C@H]2C[C@H](c3ccccc3)CN(S(=O)(=O)N3CCOCC3)C2)c1` (racemic) [Example 219T, trans-(2-(((1-(Morpholinosulfonyl)-5-phenylpiperidin-3-yl)methyl)sulfonyl)pyridin-4-yl)methanamine 2,2,2-trifluoroacetate]: at most 500 nM.
Turning to `NCc1ccc(S(=O)(=O)C[C@@H]2C[C@H](c3ccccc3)CN(S(=O)(=O)N3CCOCC3)C2)s1` (racemic) [Example 222, cis-(5-(((1-(Morpholinosulfonyl)-5-phenylpiperidin-3-yl)methyl)sulfonyl)thiophen-2-yl)methanamine 2,2,2-trifluoroacetate], the IC50 was at most 500 nM.
`NCc1cccc(OC[C@H]2C[C@H](c3ccccc3)CN(S(=O)(=O)N3CCOCC3)C2)c1` (relative stereo) [Example 221T, trans-(3-((1-(Morpholinosulfonyl)-5-phenylpiperidin-3-yl)methoxy)phenyl)methanamine 2,2,2-trifluoroacetate]: the IC50 was at most 500 nM.
On to `CS(=O)(=O)N1C[C@@H](c2ccccc2)C[C@H]1CS(=O)(=O)c1ccc(CN)s1` (racemic) [Example 223, cis-(5-(((1-(Methylsulfonyl)-4-phenylpyrrolidin-2-yl)methyl)sulfonyl)thiophen-2-yl)methanamine 2,2,2-trifluoroacetate], for which the IC50 is at most 500 nM.
In the case of `NCc1cccc(OC[C@@H]2C[C@H](c3ccccc3F)CN2S(=O)(=O)N2CCS(=O)(=O)CC2)c1` (racemic) [Example 217, cis-4-((2-((3-(Aminomethyl)phenoxy)methyl)-4-(2-fluorophenyl)pyrrolidin-1-yl)sulfonyl)thiomorpholine 1,1-dioxide 2,2,2-trifluoroacetate], the IC50 lay within 500 to 1000 nM.
With `NCc1ccnc(OC[C@@H]2C[C@H](c3ccccc3)CN(S(=O)(=O)N3CCOCC3)C2)c1` (racemic) [Example 220, cis-(2-((1-(Morpholinosulfonyl)-5-phenylpiperidin-3-yl)methoxy)pyridin-4-yl)methanamine 2,2,2-trifluoroacetate], the IC50 was at most 500 nM.
As for `NCc1ccnc(OC[C@@H]2CC(C3CCCCC3)CN2S(=O)(=O)N2CCOCC2)c1` (mixture of isomers) [Example 239RAC, (2-(((2S)-4-Cyclohexyl-1-(morpholinosulfonyl)pyrrolidin-2-yl)methoxy)pyridin-4-yl)methanamine 2,2,2-trifluoroacetate], the IC50 is at most 500 nM.
Take `NCc1ccnc(S(=O)(=O)C[C@H]2C[C@H](C3CCCCC3)CN(S(=O)(=O)N3CCS(=O)(=O)CC3)C2)c1` (relative stereo) [Example 234T, trans-4-((3-(((4-(Aminomethyl)pyridin-2-yl)sulfonyl)methyl)-5-cyclohexylpiperidin-1-yl)sulfonyl)thiomorpholine 1,1-dioxide 2,2,2-trifluoroacetate]: the IC50 is at most 500 nM.
Next, `NCc1ccnc(OC[C@@H]2C[C@H](C3CCCCC3)CN(S(=O)(=O)N3CCOCC3)C2)c1` (relative stereo) [Example 231, cis-(2-((5-Cyclohexyl-1-(morpholinosulfonyl)piperidin-3-yl)methoxy)pyridin-4-yl)methanamine 2,2,2-trifluoroacetate]: at most 500 nM; `NCc1ccnc(OC[C@H]2C[C@H](C3CCCCC3)CN(S(=O)(=O)N3CCS(=O)(=O)CC3)C2)c1` (racemic) [Example 235T, trans-4-((3-(((4-(Aminomethyl)pyridin-2-yl)oxy)methyl)-5-cyclohexylpiperidin-1-yl)sulfonyl)thiomorpholine 1,1-dioxide 2,2,2-trifluoroacetate]: at most 500 nM; `NCc1ccnc(S(=O)(=O)C[C@@H]2C[C@H](c3ccccc3)CN(S(=O)(=O)N3CCOCC3)C2)c1` (racemic) [Example 219, cis-(2-(((1-(Morpholinosulfonyl)-5-phenylpiperidin-3-yl)methyl)sulfonyl)pyridin-4-yl)methanamine 2,2,2-trifluoroacetate]: at most 500 nM.
In the case of `NCc1ccnc(S(=O)(=O)C[C@@H]2C[C@H](C3CCCCC3)CN(S(=O)(=O)N3CCOCC3)C2)c1` (relative stereo) [Example 230, cis-(2-(((5-Cyclohexyl-1-(morpholinosulfony1)piperidin-3-yl)methyl)sulfonyl)pyridin-4-yl)methanamine 2,2,2-trifluoroacetate], the IC50 was at most 500 nM.
In the case of `NCc1ccnc(S(=O)(=O)C[C@H]2C[C@H](C3CCCCC3)CN(S(=O)(=O)N3CCOCC3)C2)c1` (relative stereo) [Example 230T, trans-(2-(((5-Cyclohexyl-1-(morpholinosulfonyl)piperidin-3-yl)methyl)sulfonyl)pyridin-4-yl)methanamine 2,2,2-trifluoroacetate], the IC50 was at most 500 nM.
On to `NCc1ccnc(S(=O)(=O)C[C@@H]2C[C@H](C3CCCCC3)CN(S(=O)(=O)N3CCS(=O)(=O)CC3)C2)c1` (relative stereo) [Example 234, cis-4-((3-(((4-(Aminomethyl)pyridin-2-yl)sulfonyl)methyl)-5-cyclohexylpiperidin-1-yl)sulfonyl)thiomorpholine 1,1-dioxide 2,2,2-trifluoroacetate], for which the IC50 is at most 500 nM.
`NCc1cccc(OC[C@@H]2C[C@H](c3ccccc3)CN(S(=O)(=O)N3CCOCC3)C2)c1` (racemic) [Example 221, cis-(3-((1-(Morpholinosulfonyl)-5-phenylpiperidin-3-yl)methoxy)phenyl)methanamine 2,2,2-trifluoroacetate]: the IC50 was at most 500 nM.
Consider `NCc1ccnc(OC[C@H]2C[C@H](c3ccccc3)CN(S(=O)(=O)N3CCOCC3)C2)c1` (relative stereo) [Example 220T, trans-(2-((1-(Morpholinosulfonyl)-5-phenylpiperidin-3-yl)methoxy)pyridin-4-yl)methanamine 2,2,2-trifluoroacetate], for which the IC50 was in the range of 500 to 1000 nM.
